Values of other authors in patent US20160228384A1, “EMULSION CONTAINING TWO OILS AND STABILIZERS” (NANOMEDEX, LLC, priority 2015, published 2016).

How the values were obtained:
[1] = not given; remark: listed apart in the source

Compound: CCCCOC(C)=O [Butyl acetate]
- Log P: 1.8
- Solubility in Water [1]: 0.64 wt %
- Water Solubility in Solvent [1]: 0.98 wt %

Compound: CCCC(=O)OCC [Ethyl butyrate]
- Log P: 1.7
- Solubility in Water [1]: 0.69 wt %
- Water Solubility in Solvent [1]: 0.79 wt %

Compound: CCCCCC(=O)OCC [Ethyl hexanoate]
- Log P: 2.4
- Solubility in Water [1]: 0.083 wt %
- Water Solubility in Solvent [1]: 0.47 wt %

Compound: CCCCCCCC(=O)OCC [Ethyl octanoate]
- Log P: 3.5
- Solubility in Water [1]: 0.051 wt %
- Water Solubility in Solvent [1]: 0.90 wt %

Compound: CCCCCCOC(C)=O [Hexyl acetate]
- Log P: 2.4
- Solubility in Water [1]: 0.043 wt %
- Water Solubility in Solvent [1]: 0.566 wt %

Compound: CCCCCCCCOC(C)=O [Octyl acetate]
- Log P: 3.4
- Solubility in Water [1]: 0.018 wt %
- Water Solubility in Solvent [1]: 0.02 wt %
